We go through one compound from publication PMC6994123, “A mosquito juvenile hormone binding protein (mJHBP) regulates the activation of innate immune defenses and hemocyte development” (PLoS Pathogens, 2020).

pKd: −log10 of the molar value.

Assay [1] deals with T1, mJHBP (Aedes aegypti, UniProt Q16Y94, Y152F).
T1 construct: gene 5570847; two OBP domains; gel filtration, Q-Sepharose and Phenyl-Sepharose purified; probably mature protein
T1 sequence (Q16Y94 25-311 Y152F): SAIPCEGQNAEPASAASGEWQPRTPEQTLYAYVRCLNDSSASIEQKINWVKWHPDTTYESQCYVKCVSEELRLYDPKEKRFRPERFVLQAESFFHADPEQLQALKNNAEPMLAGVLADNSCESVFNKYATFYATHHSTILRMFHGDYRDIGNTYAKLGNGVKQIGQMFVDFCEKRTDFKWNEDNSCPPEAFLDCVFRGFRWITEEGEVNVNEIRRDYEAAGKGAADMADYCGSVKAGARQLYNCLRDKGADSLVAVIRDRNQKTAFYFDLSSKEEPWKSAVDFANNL
The assay is described as follows: isothermal titration calorimetry, single-site fit. In kind it is binding. Conditions: read-out: Ka (converted). The source says: isothermal titration calorimetry, single-site fit on mJHBP | Y129F mutant.
Background: ITC needs no label: the signal is the heat of the interaction.

Assay [2] addresses T2, mJHBP (Aedes aegypti, UniProt Q16Y94).
T2 construct: gene 5570847; two OBP domains; gel filtration, Q-Sepharose and Phenyl-Sepharose purified; probably mature protein
T2 sequence (Q16Y94 25-311): T1 sequence (Q16Y94 25-311 Y152F)
Briefly: isothermal titration calorimetry, single-site fit. Format: binding. Conditions: read-out: Ka. An excerpt: isothermal titration calorimetry, single-site fit on mJHBP | wild type mJHBP.

As for `COC(=O)/C=C(\C)CC/C=C(\C)CC[C@H]1OC1(C)C` [JH III, juvenile hormone III], the Kd in assay [1] is 1090 nM. Also, the pKd in assay [2] was 7.00.
